Data on two compounds can be found in patent US7705004B2, “Protein kinase inhibitors” (Portola Pharmaceuticals, Inc., priority 2007, dated 2010).

Molecules are shown by their SMILES.

Type in all cases: cell-based
Test [1] concerns human platelet-rich plasma (PRP). The test is described as follows: Convulxin-induced aggregation assay (cuvette light transmittance). The settings on record: 125-250 ng/mL Convulxin, read-out: IC50, inhibition of convulxin-induced aggregation of platelet rich plasma. The method, then:
For preparation of human platelet-rich plasma (PRP) for aggregation assays, human venous blood was collected from healthy, drug-free volunteers into 0.38% sodium citrate (0.013 M, pH 7.0 final). PRP was prepared by centrifugation of whole blood at 160×g for 20 minutes at room temperature. The PRP layer was removed, transferred to a new tube, and the platelet count was adjusted, if necessary, to achieve a platelet concentration of ˜3×10^8 platelets/mL using platelet-poor plasma (PPP). PPP was prepared by centrifugation of the remaining blood sample (after removal of PRP) for 20 minutes at 800×g. This preparation of PRP may be subsequently used for aggregation assays in either a 96-well plate or standard cuvette aggregometry.
Inhibition of Convulxin-induced aggregation was determined by cuvette light transmittance aggregation assays. Serial dilutions (1:2) of test compounds were prepared in 30% DMSO in a 96-well V-bottom plate (final DMSO concentration in the cuvette was 0.3%). The test compound (5 μl of serial dilutions in DMSO) was preincubated with PRP for 20 minutes prior to initiation of the aggregation reactions, which were performed in a ChronoLog aggregometer by addition of agonist (125-250 ng/mL Convulxin) to 495 μL of PRP at 37° C. The aggregation reaction was recorded for 4 minutes, and the maximum extent of aggregation was determined by the difference in extent of aggregation at baseline, compared to the maximum aggregation that occurred during the 4 minute period of the assay. Inhibition of aggregation was calculated as the maximum aggregation observed in the presence of inhibitor, compared to that in the absence of inhibitor. IC50s were derived by non-linear regression analysis.

The next test relates to human washed platelets. As to the kind of experiment: Inhibition of Convulxin-mediated platelet calcium mobilization in vitro. The settings on record: 125 ng/mL Convulxin. The method, then: Inhibition of Convulxin-induced calcium mobilization was determined in human washed platelets using the FLIPR Calcium 3 Assay Kit (Molecular Devices, Sunnyvale, Calif.). For preparation of washed platelets, human venous blood was collected from healthy, drug-free volunteers into ACD (85 mM sodium citrate, 111 mM glucose, 71.4 mM citric acid) containing PGI2 (1.25 mL ACD containing 0.2 μM PGI2 final; PGI2 from Sigma, St. Louis, Mo.). Platelet-rich plasma (PRP) was prepared by centrifugation at 160×g for 20 minutes at room temperature. Washed platelets were prepared by centrifuging PRP for 10 minutes at 730×g and resuspending the platelet pellet in CGS (13 mM sodium citrate, 30 mM glucose, 120 mM NaCl; 2 mL CGS/10 mL original blood volume). The wash in CGS was repeated a second time, the platelets were collected by centrifugation at 730 g for 10 minutes and resuspended at a concentration of 3×10^8 platelets/mL in Hepes-Tyrode's buffer (10 mM Hepes, 138 mM NaCl, 5.5 mM glucose, 2.9 mM KCl, 12 mM NaHCO3, pH 7.4). This platelet suspension was allowed to rest for 45 minutes at room temperature before use in calcium mobilization assays.
For 96-well plate calcium-mobilization experiments, equal volumes of 3×10^8 washed platelets/mL were incubated with equal volumes of Calcium-3 Assay Reagent A resuspended in 1× Hank's Balanced Salt Solution, pH 7.4, 20 mM Hepes buffer. The total reaction volume of 0.2 mL/well included 1.5×10^8/mL washed platelet/Calcium-3 Assay reagent A mix, 10 μM Eptifibatide (Millennium Pharmaceuticals Inc, Cambridge, Mass.) and serial dilutions (1:3) of test compounds in 0.75% DMSO. DMSO alone was added to 1 well of each 8 set to allow for a maximal calcium-mobilization reading. After a 20 minute preincubation at room temperature, the 96-well microplate reader was loaded into the FlexStation (Molecular Devices, Sunnyvale, Calif.). The FlexStation experimental conditions for measuring calcium mobilization were set up using SOFTMax Pro. The settings used were as follows: Fluorescence parameters-assay mode: flex, excitation 485 nm, 525 nM with a cut-off of 515 nM; Parameters—PMT sensitivity-6, pipette height 230 μl, read time 2 minutes and 40 seconds, read intervals 2 seconds, temperature-23-25° C. After 18 seconds of baseline reading, calcium mobilization was initiated by the addition of Convulxin to a final concentration of 125 ng/mL. Inhibition of calcium mobilization was calculated as the maximum response observed in the presence of inhibitor, compared to that in the absence of inhibitor. IC50s were then derived by non-linear regression analysis.
(Calcium flux is commonly read through the fluorescence of an indicator in the cells.)

The test system of test [2] is IL-4 induced STAT-6 phosphorylation (JAK1/JAK3) in Ramos B-cells. As to the kind of experiment: JAK3/STAT6 cellular assay: IL-4 induced STAT-6 phosphorylation, intracellular flow cytometry. The settings on record: Homo sapiens, Ramos B-cells pre-treated 1 hour, IL-4 10 minutes. From the text: Similar types of assays can be used to assess JAK kinase inhibitory activity and to determine the degree of selectivity of the particular compound as compared to Syk kinase. One means of assaying for such inhibition is detection of the effect of the compounds of the present invention on the upregulation of downstream gene products. In the Ramos/IL4 assay, B-cells are stimulated with the cytokine Interleukin-4 (IL-4) leading to the activation of the JAK/Stat pathway through phosphorylation of the JAK family kinases, JAK1 and JAK3, which in turn phosphorylate and activate the transcription factor Stat-6. […] To study the effect of inhibitors (e.g., the 2,4-substituted pyrimindinediamine compounds described herein) on the JAK1 and JAK3 kinases, human Ramos B-cells are stimulated with human IL-4. 10′ post-stimulation, cells are subjected to intracellular flow cytometry to measure the extent of STAT-6 phosphorylation. 20 to 24 hours post-stimulation, cells are stained for upregulation of CD23 and analyzed using flow cytometry.
Stimulation of Ramos B-cells by IL-4 leads to signaling through JAK1/JAK3 resulting in phosphorylation of STAT6 (signal transducers and activators of transcription). The effect of compounds on inhibition of JAK3 and/or JAK1 can be assessed by measuring the amount of phosphorylated STAT6. This may be performed by Western blotting and/or intracellular flow cytometry using a specific phospho-STAT6 antibody. Data describing compound inhibition of IL-4 induced STAT-6 phosphorylation (measured by intracellular flow cytometry) for Compound 1-1 (Example 1) is presented in the following table.
For the data in the above Table, Ramos B-cells were pre-treated for 1 hour with increasing concentrations of Compound 1-1, as indicated prior to addition of IL-4. Cells were incubated with IL-4 for 10 minutes, and then subjected to intracellular flow cytometry to measure the percent inhibition of IL-4 induced Stat-6, as shown.
For orientation: A flow cytometer gives signals particle by particle.

By IC50 is commonly meant the concentration at which inhibition is half-maximal. For orientation: inhibition means the share of the control response that was lost under treatment. For `CC(=O)N1CCN(c2ccc(Nc3nc(Nc4ccc5cn[nH]c5c4)c4cc[nH]c4n3)cc2)CC1` [Compound 1-1, 1-(4-(4-(4-(1H-indazol-6-ylamino)-7H-pyrrolo[2,3-d]pyrimidin-2-ylamino)phenyl)piperazin-1-yl)ethanone], the values for the IC50 (in test [1]; with human washed platelets) were not above 50 µM and less than 1 µM, respectively. The inhibition at 0.05 µM in test [2] (0.05 μM compound) turned out to be 0%. Further, the inhibition at 0.125 µM in test [2] (0.125 μM compound) was found to be 6%. Besides, the inhibition at 0.25 µM in test [2] (0.25 μM compound) came out at 22%. Moreover, the inhibition at 0.5 µM in test [2] (0.5 μM compound) is 33%. For the same compound, the inhibition at 1 µM in test [2] (1 μM compound) turned out to be 41%. The inhibition at 2 µM in test [2] (2 μM compound) was 49%.
In the case of `CS(=O)(=O)c1ccc(Nc2nc(Nc3ccc4cn[nH]c4c3)c3cc[nH]c3n2)cc1` [Compound 9-1, N4-(1H-indazol-6-yl)-N2-(4-(methylsulfonyl)phenyl)-7H-pyrrolo[2,3-d]pyrimidine-2,4-diamine], the figures for the IC50 (in test [1]; with human washed platelets) were not above 50 µM and less than 1 µM, respectively.
